Source: ChEMBL document CHEMBL1201862, “PubChem BioAssay data set” (2004)
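These data come from cells grown in 96-well plates and exposed to compound for 48 hours at five concentrations. The concentration for 50% growth inhibition is given as GI50.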 Calls of active or inactive are those of the source. Rule as the data show it: active = GI50 up to about 1.1 µM and inactive = higher.

Experiments:
Assay in all cases: DTP human tumour cell line panel, 48 h
[1] = tested on: OVCAR-3
[2] = tested on: CAKI-1
[3] = tested on: HCT-15
[4] = tested on: SK-OV-3
[5] = tested on: K562
[6] = tested on: CCRF-CEM
[7] = tested on: COLO 205
[8] = tested on: HCC 2998
[9] = tested on: SNB-19
[10] = tested on: Malme-3M
[11] = tested on: MDA-MB-435
[12] = tested on: MCF7
[13] = tested on: SF-268
[14] = tested on: HOP-62
[15] = tested on: HT-29
[16] = tested on: MDA-N
[17] = tested on: UO-31
[18] = tested on: LOX IMVI
[19] = tested on: HL-60
[20] = tested on: SF-539

| Structure (SMILES) | GI50 [1] | GI50 [2] | GI50 [3] [µM] | GI50 [4] | GI50 [5] | GI50 [6] | GI50 [7] | GI50 [8] | GI50 [9] | GI50 [10] | GI50 [11] | GI50 [12] | GI50 [13] | GI50 [14] | GI50 [15] | GI50 [16] | GI50 [17] | GI50 [18] | GI50 [19] | GI50 [20] |
| --- | --- | --- | --- | --- | --- | --- | --- | --- | --- | --- | --- | --- | --- | --- | --- | --- | --- | --- | --- | --- |
| Cc1c(CN2CCOCC2)c(CN2CCOCC2)c(C)n1-c1ccc(Cl)cn1 | > 100 µM (inactive) | > 100 µM (inactive) | > 100 | > 100 µM (inactive) | > 100 µM (inactive) | > 100 µM (inactive) | > 100 µM (inactive) | > 100 µM (inactive) | > 100 µM (inactive) | > 100 µM (inactive) | > 100 µM (inactive) | > 100 µM (inactive) | > 100 µM (inactive) | > 100 µM (inactive) | > 100 µM (inactive) | > 100 µM (inactive) | > 100 µM (inactive) |  |  |  |
| CC[C@H]1OC([C@H](O)C/C=C\C#C[Si](C)(C)C)C/C=C\C[C@H]1O[Si](C)(C)C(C)(C)C (stereo partly drawn) | > 100 µM (inactive) | > 100 µM (inactive) | > 100 | > 100 µM (inactive) | > 100 µM (inactive) | 43.3 µM (inactive) | > 100 µM (inactive) | > 100 µM (inactive) | > 100 µM (inactive) | > 100 µM (inactive) | > 100 µM (inactive) | 51.4 µM (inactive) | > 100 µM (inactive) | > 100 µM (inactive) | > 100 µM (inactive) | > 100 µM (inactive) | 54.5 µM (inactive) | 19.4 µM (inactive) |  |  |
| O=C1/C(=C/c2ccccc2[N+](=O)[O-])N=C(c2ccccc2)N1C1Nc2cc3c(cc2S1)NC(N1C(=O)/C(=C/c2ccccc2[N+](=O)[O-])N=C1c1ccccc1)S3 (stereo not drawn) | 37.2 µM (inactive) | 39.7 µM (inactive) | 32.8 |  | 37.1 µM (inactive) |  |  | 16.7 µM (inactive) |  |  | 51.6 µM (inactive) | 18.7 µM (inactive) | 47.3 µM (inactive) | 89.5 µM (inactive) | 36.2 µM (inactive) | 36.8 µM (inactive) | 24.1 µM (inactive) | 35 µM (inactive) | 24 µM (inactive) | 44.8 µM (inactive) |
| C=C1C(=O)O[C@H]2C/C(C)=C/CC[C@]3(C)CCC[C@](C)(CC[C@@H]12)O3 | 9.53 µM (inactive) | 12 µM (inactive) | 10.8 | 22.2 µM (inactive) | 8.49 µM (inactive) | 0.828 µM (active) | 6.4 µM (inactive) | 7.24 µM (inactive) | 15.8 µM (inactive) |  | 7.01 µM (inactive) | 13 µM (inactive) | 7.8 µM (inactive) | 20.5 µM (inactive) | 8.26 µM (inactive) | 14.6 µM (inactive) | 8.69 µM (inactive) | 12.2 µM (inactive) |  | 9.48 µM (inactive) |
| C=C(CCC/C(C)=C/C=C/[C@@H](C)CCCc1ccoc1)C[C@@H]1OC(=O)[C@H](C)[C@@H]1O | 7.13 µM (inactive) | 9.91 µM (inactive) | 10.1 | 7.46 µM (inactive) | 21.5 µM (inactive) | 9.89 µM (inactive) | 8.43 µM (inactive) | 11.6 µM (inactive) | 9.25 µM (inactive) | 8.91 µM (inactive) | 7.96 µM (inactive) | 7.89 µM (inactive) | 9.31 µM (inactive) | 8.69 µM (inactive) | > 50 µM (inactive) | 9.73 µM (inactive) | 7.85 µM (inactive) | 9.71 µM (inactive) |  | 8.17 µM (inactive) |
| C[C@]12[C@@H]3CC[C@H]1[C@@H](O)C(=O)N2CC3 |  | > 100 µM (inactive) | > 100 | > 100 µM (inactive) | > 100 µM (inactive) | > 100 µM (inactive) | > 100 µM (inactive) | > 100 µM (inactive) | > 100 µM (inactive) | > 100 µM (inactive) | > 100 µM (inactive) | > 100 µM (inactive) | > 100 µM (inactive) | > 100 µM (inactive) | > 100 µM (inactive) | > 100 µM (inactive) | > 100 µM (inactive) | > 100 µM (inactive) | > 100 µM (inactive) |  |
| N#C[C@@H](c1ccccn1)c1ncccc1[N+](=O)[O-] | > 100 µM (inactive) | > 100 µM (inactive) | > 100 | > 100 µM (inactive) | > 100 µM (inactive) | > 100 µM (inactive) | > 100 µM (inactive) | > 100 µM (inactive) | > 100 µM (inactive) | > 100 µM (inactive) | > 100 µM (inactive) | 74 µM (inactive) | > 100 µM (inactive) | > 100 µM (inactive) | > 100 µM (inactive) | > 100 µM (inactive) | > 100 µM (inactive) | > 100 µM (inactive) |  |  |
| CSc1cc(Cl)c(C)cc1S(=O)(=O)NC(=O)NNc1ccccn1 | > 100 µM (inactive) | > 100 µM (inactive) | > 100 | > 100 µM (inactive) | > 100 µM (inactive) | > 100 µM (inactive) | > 100 µM (inactive) | > 100 µM (inactive) | > 100 µM (inactive) | > 100 µM (inactive) | > 100 µM (inactive) | > 100 µM (inactive) | > 100 µM (inactive) | > 100 µM (inactive) | > 100 µM (inactive) | > 100 µM (inactive) |  | > 100 µM (inactive) |  | > 100 µM (inactive) |
| O=c1c2ccccc2[nH]c2c(Cl)cc(Cl)c(NC3CCCCC3)c12 | 14.2 µM (inactive) | 31.5 µM (inactive) | 30.1 | 32.2 µM (inactive) | 22.4 µM (inactive) | > 10 µM (inactive) | 31.8 µM (inactive) | 25.1 µM (inactive) | 13.2 µM (inactive) |  | 16.9 µM (inactive) | 18.7 µM (inactive) |  | 20.7 µM (inactive) | 16.3 µM (inactive) | 33.3 µM (inactive) | 15.3 µM (inactive) | 36.5 µM (inactive) | 18.2 µM (inactive) | 23.2 µM (inactive) |
| CC1(/C=C/CCSc2ccccc2)CC(=O)C2CC1C2(C)C (stereo not drawn) | 23.1 µM (inactive) | 26.6 µM (inactive) | 15.8 | > 72.4 µM (inactive) | 5.79 µM (inactive) | 6.49 µM (inactive) | 30 µM (inactive) | 12.5 µM (inactive) | 35.8 µM (inactive) | 21.3 µM (inactive) | 19.3 µM (inactive) | 22.6 µM (inactive) | 28.5 µM (inactive) | 36.9 µM (inactive) | 12.4 µM (inactive) | 26.9 µM (inactive) | 5.61 µM (inactive) | 14.8 µM (inactive) |  | 7.96 µM (inactive) |
| Cn1c2ccccc2c(=O)c2c(O)cc3c(c21)C=CC1(CCCCC1)O3 | > 10 µM (inactive) | > 10 µM (inactive) | > 10 | > 10 µM (inactive) | 4.5 µM (inactive) | > 10 µM (inactive) | > 10 µM (inactive) | > 10 µM (inactive) | > 10 µM (inactive) | > 10 µM (inactive) | > 10 µM (inactive) | 9.1 µM (inactive) | > 10 µM (inactive) | > 10 µM (inactive) | 3.85 µM (inactive) | > 10 µM (inactive) | > 10 µM (inactive) | > 10 µM (inactive) |  | > 10 µM (inactive) |
| O=C1/C(=C/c2cccs2)N=C(c2ccccc2)N1c1nc2ccccc2s1 | > 100 µM (inactive) | 14 µM (inactive) | 82.4 |  | 47.5 µM (inactive) | 0.162 µM (active) |  | > 100 µM (inactive) | > 100 µM (inactive) |  | > 100 µM (inactive) | 49.9 µM (inactive) | 7.74 µM (inactive) | > 100 µM (inactive) | 36.3 µM (inactive) | 91.6 µM (inactive) | 24.2 µM (inactive) | > 100 µM (inactive) | > 100 µM (inactive) | > 100 µM (inactive) |
| COC(=O)C1CC2CCC1(O[Si](C(C)C)(C(C)C)C(C)C)C(O)C2 (stereo not drawn) | 17.3 µM (inactive) | 38.5 µM (inactive) | 16.9 | 43.4 µM (inactive) | 12.4 µM (inactive) | 24.3 µM (inactive) | 29.4 µM (inactive) | 21.8 µM (inactive) | 19.1 µM (inactive) | 54.2 µM (inactive) | 16.2 µM (inactive) | 14.9 µM (inactive) | 26.2 µM (inactive) | 18.4 µM (inactive) | 16.6 µM (inactive) | 22 µM (inactive) | 16.6 µM (inactive) | 14.4 µM (inactive) | 13.1 µM (inactive) |  |
| Clc1cc2nnn(C3CCCCO3)c2cc1Cl (stereo not drawn) | 69.3 µM (inactive) | 30.4 µM (inactive) | 96.6 | > 100 µM (inactive) | > 100 µM (inactive) | > 100 µM (inactive) | > 100 µM (inactive) | > 100 µM (inactive) | > 100 µM (inactive) | > 100 µM (inactive) | > 100 µM (inactive) | > 100 µM (inactive) | 42.3 µM (inactive) | > 100 µM (inactive) | 63.1 µM (inactive) | > 100 µM (inactive) | 30.7 µM (inactive) |  |  | > 100 µM (inactive) |
| Oc1ccc(-c2nc3cc(C(F)(F)F)ccc3n2CC2CCCN3CCCCC23)cc1 (stereo not drawn) | 13 µM (inactive) | 18 µM (inactive) | 16.1 | 12.6 µM (inactive) | 15.5 µM (inactive) | 14.7 µM (inactive) |  | 9.75 µM (inactive) |  |  | 13.5 µM (inactive) | 12.6 µM (inactive) | 14.8 µM (inactive) | 12.1 µM (inactive) | 13.4 µM (inactive) | 16.2 µM (inactive) | 11.7 µM (inactive) | 15.4 µM (inactive) | 3.01 µM (inactive) | 18.7 µM (inactive) |
| O=C1CCC(N2C(=O)c3ccccc3C2=O)C(=O)N1 (stereo not drawn) [THALIDOMIDE] |  | > 100 µM (inactive) | > 100 | > 100 µM (inactive) | > 100 µM (inactive) | > 100 µM (inactive) | > 100 µM (inactive) | > 100 µM (inactive) | > 100 µM (inactive) | > 100 µM (inactive) | > 100 µM (inactive) | > 100 µM (inactive) | > 100 µM (inactive) | > 100 µM (inactive) |  | > 100 µM (inactive) | > 100 µM (inactive) |  |  |  |
